Experiments:
Assay type in all cases: cell-based
C. albicans [1] = assay: C. albicans colony counts with 17β-estradiol in presence and absence of 2ME2 (Example 3); conditions: 5 hours; for Number of Colonies treated with estradiol and 2ME2: 1 μM 2ME2 with 1 nM 17β-estradiol; for Percentage of Inhibition: 1 μM 2ME2 with 1 nM 17β-estradiol vs estradiol alone; for Number of Colonies treated with estradiol: 1 nM 17β-estradiol alone
Method: (§1) The ability of 3 μM 2ME2 to inhibit the growth of ten different strains of C. albicans was investigated. Nine of these strains were clinically isolated and maintained by interval of subculture with Sabouraouds dextrose agar and storage at 4° C.; the other strain was purchased from ATCC. Yeast cells were cultured with nitrogen broth devoid of mammalian steroid hormones in the presence and absence of 2ME2. At 5 and 12 hours after the addition of 2ME2, a small volume of control and treated cultures was drawn and plated on Sabouraouds dextrose agar plates. The plates were placed at 37° C. and the colonies counted 24 hours later. Table I illustrates that micromolar concentrations 2ME2 are able to suppress the growth of 9/10 strains of C. albicans tested here.
In a separate experiment, 1 nM 17β-estradiol was added to the cultures of C. albicans cells in the presence and absence of 1 μM 2ME2 and the number of colonies of yeast cells cultured for 5 hours with the above steroids were counted as previously described.

C. albicans [2] = assay: Repeat of the growth inhibition test, colony counts after 5 hours of culture (Example 2)
Method: as §1
The experiment described in Example 1 was repeated with 4 of the above strains and 3 newly isolated C. albicans trains. The following counts were taken from yeast cultures grown for 5 hours in the nitrogen base media in the presence and absence of micromolar concentrations 2ME2.

C. albicans [3] = assay: Growth inhibition of C. albicans strains by 2ME2, colony counts at 5 and 12 hours (Example 1); conditions: for Number of Treated Colonies at 5 hrs / Number of Treated Colonies at 12 hrs / Percentage of Inhibition at 12 hrs: 3 μM 2ME2
Method: as §1

[4] = strain 2, micromolar concentrations 2ME2
[5] = strain 5, micromolar concentrations 2ME2
[6] = strain 8, micromolar concentrations 2ME2
[7] = strain 10, micromolar concentrations 2ME2
[8] = strain 11, micromolar concentrations 2ME2
[9] = strain 12, micromolar concentrations 2ME2
[10] = strain ATCC, micromolar concentrations 2ME2

COc1cc2c(cc1O)CC[C@@H]1[C@@H]2CC[C@]2(C)[C@@H](O)CC[C@@H]12 [2ME2, 2-Methoxyestradiol]
Number of Colonies treated with estradiol and 2ME2 (C. albicans [1]; strain 2): 64 ± 2 | Percentage of Inhibition (C. albicans [1]; strain 5): 43% | Number of Colonies treated with estradiol and 2ME2 (C. albicans [1]; strain 5): 39 ± 4 | Percentage of Inhibition (C. albicans [1]; strain 8): 48% | Number of Colonies treated with estradiol and 2ME2 (C. albicans [1]; strain 8): 25 ± 3 | Percentage of Inhibition (C. albicans [1]; strain 10): 56% | Number of Colonies treated with estradiol and 2ME2 (C. albicans [1]; strain 10): 23 ± 5 | Percentage of Inhibition (C. albicans [1]; strain 11): 31% | Number of Colonies treated with estradiol and 2ME2 (C. albicans [1]; strain 11): 55 ± 6 | Percentage of Inhibition (C. albicans [1]; strain 12): 53% | Number of Colonies treated with estradiol and 2ME2 (C. albicans [1]; strain 12): 56 ± 1 | Percentage of Inhibition (C. albicans [1]; strain ATCC): 55% | Number of Colonies treated with estradiol and 2ME2 (C. albicans [1]; strain ATCC): 28 ± 12 | Percentage of Inhibition (C. albicans [2]; [4]): 70% | Treated Colonies (C. albicans [2]; [4]): 26 ± 7 | Percentage of Inhibition (C. albicans [2]; [5]): 41% | Treated Colonies (C. albicans [2]; [5]): 58 ± 7 | Percentage of Inhibition (C. albicans [2]; [6]): 50% | Treated Colonies (C. albicans [2]; [6]): 59 ± 7 | Percentage of Inhibition (C. albicans [2]; [7]): 0% | Treated Colonies (C. albicans [2]; [7]): 51 ± 19 | Percentage of Inhibition (C. albicans [2]; [8]): 14% | Treated Colonies (C. albicans [2]; [8]): 74 ± 16 | Percentage of Inhibition (C. albicans [2]; [9]): 50% | Treated Colonies (C. albicans [2]; [9]): 77 ± 12 | Percentage of Inhibition (C. albicans [2]; [10]): 44% | Treated Colonies (C. albicans [2]; [10]): 36 ± 6 | strains of C. albicans whose growth is suppressed (C. albicans [3]; micromolar concentrations 2ME2, ten strains tested): 9/10 | Number of Treated Colonies at 5 hrs (C. albicans [3]; strain 1): 16 | Number of Treated Colonies at 12 hrs (C. albicans [3]; strain 1): 50 | Percentage of Inhibition at 12 hrs (C. albicans [3]; strain 1): 57% | Number of Treated Colonies at 5 hrs (C. albicans [3]; strain 2): 51 | Number of Treated Colonies at 12 hrs (C. albicans [3]; strain 2): >400 | Number of Treated Colonies at 5 hrs (C. albicans [3]; strain 3): 14 | Number of Treated Colonies at 12 hrs (C. albicans [3]; strain 3): 86 | Percentage of Inhibition at 12 hrs (C. albicans [3]; strain 3): >78% | Number of Treated Colonies at 5 hrs (C. albicans [3]; strain 4): 17 | Number of Treated Colonies at 12 hrs (C. albicans [3]; strain 4): 113 | Percentage of Inhibition at 12 hrs (C. albicans [3]; strain 4): >72% | Number of Treated Colonies at 5 hrs (C. albicans [3]; strain 5): 14 | Number of Treated Colonies at 12 hrs (C. albicans [3]; strain 5): 85 | Percentage of Inhibition at 12 hrs (C. albicans [3]; strain 5): >79% | Number of Treated Colonies at 5 hrs (C. albicans [3]; strain 6): 32 | Number of Treated Colonies at 12 hrs (C. albicans [3]; strain 6): 131 | Percentage of Inhibition at 12 hrs (C. albicans [3]; strain 6): >67% | Number of Treated Colonies at 5 hrs (C. albicans [3]; strain 7): 13 | Number of Treated Colonies at 12 hrs (C. albicans [3]; strain 7): 148 | Percentage of Inhibition at 12 hrs (C. albicans [3]; strain 7): >63% | Number of Treated Colonies at 5 hrs (C. albicans [3]; strain 8): 14 | Number of Treated Colonies at 12 hrs (C. albicans [3]; strain 8): 98 | Percentage of Inhibition at 12 hrs (C. albicans [3]; strain 8): >75% | Number of Treated Colonies at 5 hrs (C. albicans [3]; strain 9): 15 | Number of Treated Colonies at 12 hrs (C. albicans [3]; strain 9): 90 | Percentage of Inhibition at 12 hrs (C. albicans [3]; strain 9): >77% | Number of Treated Colonies at 5 hrs (C. albicans [3]; strain ATCC): 15 | Number of Treated Colonies at 12 hrs (C. albicans [3]; strain ATCC): 67 | Percentage of Inhibition at 12 hrs (C. albicans [3]; strain ATCC): 70%

C[C@]12CC[C@@H]3c4ccc(O)cc4CC[C@H]3[C@@H]1CC[C@@H]2O [estradiol, 17β-estradiol, reference compound]
Number of Colonies treated with estradiol (C. albicans [1]; strain 2): 58 ± 5 | Number of Colonies treated with estradiol (C. albicans [1]; strain 5): 69 ± 13 | Number of Colonies treated with estradiol (C. albicans [1]; strain 8): 48 ± 7 | Number of Colonies treated with estradiol (C. albicans [1]; strain 10): 52 ± 2 | Number of Colonies treated with estradiol (C. albicans [1]; strain 11): 80 ± 1 | Number of Colonies treated with estradiol (C. albicans [1]; strain 12): 120 | Number of Colonies treated with estradiol (C. albicans [1]; strain ATCC): 63 ± 8
